This note sets out measurements from ChEMBL document CHEMBL1153340, “Inhibitors of HIV-1 attachment. Part 2: An initial survey of indole substitution patterns” (Bioorg Med Chem Lett, 2009).

The structures appear in SMILES notation. Bounds are passed on as bounds.

Test system in one data set: not listed separately
The data set can be described thus: Cytotoxicity against human HeLa67 cells expressing CD4/CCR5 after 3 days by XTT assay. Type of data set: cell-based.
Conditions: not given
(Formazan colour is commonly taken as a measure of viable cells.)
The CC50 is the concentration that lowers cell viability or growth by half. High values mean lower toxicity to the cells, low ones greater toxicity to the cells. Compound `N#Cc1cccc2c(C(=O)C(=O)N3CCN(C(=O)c4ccccc4)CC3)c[nH]c12` registered a 50% cytotoxic concentration (CC50) at 72 h of 234 µM.

In the case of `CCCCOc1cccc2c(C(=O)C(=O)N3CCN(C(=O)c4ccccc4)CC3)c[nH]c12`, the CC50 at 72 h worked out at 64.5 µM.

As for `N#Cc1ccc(F)c2c(C(=O)C(=O)N3CCN(C(=O)c4ccccc4)CC3)c[nH]c12`, the CC50 at 72 h is more than 300 µM.

The compound `O=C(C(=O)N1CCN(C(=O)c2ccccc2)CC1)c1c[nH]c2cc(F)cc(F)c12` gave a 50% cytotoxic concentration (CC50) at 72 h of more than 188 µM.

As for `O=C(C(=O)N1CCN(C(=O)c2ccccc2)CC1)c1c[nH]c2c(Br)cccc12`, the midpoint of cytotoxicity, the CC50 at 72 h, lay at 64 µM.

With `Cc1cccc2c(C(=O)C(=O)N3CCN(C(=O)c4ccccc4)CC3)c[nH]c12`, the cytotoxic concentration (CC50) at 72 h was more than 218 µM.

`N#Cc1ccc(F)c2[nH]cc(C(=O)C(=O)N3CCN(C(=O)c4ccccc4)CC3)c12` yielded a CC50 at 72 h of more than 300 µM.

`O=C(C(=O)N1CCN(C(=O)c2ccccc2)CC1)c1c[nH]c2cc(C(F)(F)F)ccc12`: the half-maximal cytotoxic concentration (CC50) at 72 h came to 54.5 µM.

Compound `Cc1ccc(C)c2c(C(=O)C(=O)N3CCN(C(=O)c4ccccc4)CC3)c[nH]c12` gave a CC50 at 72 h of 202 µM.

In the case of `O=C(C(=O)N1CCN(C(=O)c2ccccc2)CC1)c1c[nH]c2cccc(O)c12`, the CC50 at 72 h was more than 300 µM.

Regarding `COc1ccc(Br)c2[nH]cc(C(=O)C(=O)N3CCN(C(=O)c4ccccc4)CC3)c12`, it took 118 µM to reach half-maximal cytotoxicity (CC50 at 72 h).

In turn, `O=C(C(=O)N1CCN(C(=O)c2ccccc2)CC1)c1c[nH]c2cc(Cl)c(F)cc12` showed a cytotoxic concentration (CC50) at 72 h of 98.5 µM.

As to `Cc1ccc(F)c2c(C(=O)C(=O)N3CCN(C(=O)c4ccccc4)CC3)c[nH]c12`, the CC50 at 72 h came to 87.5 µM.

On to `COc1ccc(C#N)c2[nH]cc(C(=O)C(=O)N3CCN(C(=O)c4ccccc4)CC3)c12`, for which the CC50 at 72 h is more than 275 µM.

Compound `O=C(C(=O)N1CCN(C(=O)c2ccccc2)CC1)c1c[nH]c2c(F)cccc12` returned a CC50 at 72 h of more than 152 µM.

`Cn1cc(C(=O)C(=O)N2CCN(C(=O)c3ccccc3)CC2)c2ccccc21` came in with a CC50 at 72 h of 226 µM.

`COc1cc2[nH]cc(C(=O)C(=O)N3CCN(C(=O)c4ccccc4)CC3)c2cc1OC` had a cytotoxic concentration (CC50) at 72 h of more than 300 µM.

With `O=C(C(=O)N1CCN(C(=O)c2ccccc2)CC1)c1c[nH]c2c(Cl)cccc12`, half-maximal cytotoxicity (CC50 at 72 h) was put at 162 µM.

Compound `CC(C)Oc1cccc2[nH]cc(C(=O)C(=O)N3CCN(C(=O)c4ccccc4)CC3)c12` came in with a half-maximal cytotoxic concentration (CC50) at 72 h of 150 µM.

`COc1ccc(F)c2c(C(=O)C(=O)N3CCN(C(=O)c4ccccc4)CC3)c[nH]c12` gave a cytotoxic concentration (CC50) at 72 h of more than 300 µM.

For the compound `O=C(C(=O)N1CCN(C(=O)c2ccccc2)CC1)c1c[nH]c2c(Br)cc(F)cc12`, the CC50 at 72 h came out at 22.5 µM.

On to `COc1cccc2c(C(=O)C(=O)N3CCN(C(=O)c4ccccc4)CC3)c[nH]c12`, for which the midpoint of cytotoxicity, the CC50 at 72 h, lay at 154 µM.

Turning to `O=C(C(=O)N1CCN(C(=O)c2ccccc2)CC1)c1c[nH]c2c(OCC(F)(F)F)ccc(F)c12`, it took 196 µM to reach half-maximal cytotoxicity (CC50 at 72 h).

In turn, `O=C(C(=O)N1CCN(C(=O)c2ccccc2)CC1)c1c[nH]c2cccc(Cl)c12` yielded a half-maximal cytotoxic concentration (CC50) at 72 h of 212 µM.

The compound `COc1cccc2[nH]cc(C(=O)C(=O)N3CCN(C(=O)c4ccccc4)CC3)c12` had a CC50 at 72 h of more than 300 µM.

With `O=C(C(=O)N1CCN(C(=O)c2ccccc2)CC1)c1c[nH]c2cc(F)ccc12`, the half-maximal cytotoxic concentration (CC50) at 72 h is more than 245 µM.

With `O=C(C(=O)N1CCN(C(=O)c2ccccc2)CC1)c1c[nH]c2c(F)ccc(Br)c12`, the midpoint of cytotoxicity, the CC50 at 72 h, lay at 86 µM.

Another data set deals with Human immunodeficiency virus 1. The data set can be described thus: Antiviral activity against pseudotype HIV1 JRFL infected in human HeLa67 cells expressing CD4/CCR5 after 3 days by luciferase reporter gene assay. Type of data set: functional, organism-based. The note with it: Human immunodeficiency virus 1, JRFL, HeLa67, 72 h. In general terms: A reporter such as luciferase makes a cellular process visible.
What is called EC50 is the concentration needed to bring the measured effect to its halfway point. High values mean lower potency in that assay, low ones higher potency in that assay. For the compound `N#Cc1cccc2c(C(=O)C(=O)N3CCN(C(=O)c4ccccc4)CC3)c[nH]c12`, the EC50 worked out at 4.9 nM.

In turn, `CCCCOc1cccc2c(C(=O)C(=O)N3CCN(C(=O)c4ccccc4)CC3)c[nH]c12` came in with a half-maximal effective concentration (EC50) of 0.14 nM.

Consider `N#Cc1ccc(F)c2c(C(=O)C(=O)N3CCN(C(=O)c4ccccc4)CC3)c[nH]c12`, for which a half-maximal effect (EC50) was put at 1.9 nM.

`O=C(C(=O)N1CCN(C(=O)c2ccccc2)CC1)c1c[nH]c2cc(F)cc(F)c12` returned an EC50 of 0.42 nM.

Turning to `O=C(C(=O)N1CCN(C(=O)c2ccccc2)CC1)c1c[nH]c2c(Br)cccc12`, the midpoint of the response, the EC50, lay at 17.4 nM.

Compound `Cc1cccc2c(C(=O)C(=O)N3CCN(C(=O)c4ccccc4)CC3)c[nH]c12` gave a concentration for a half-maximal effect (EC50) of 89.5 nM.

Regarding `N#Cc1ccc(F)c2[nH]cc(C(=O)C(=O)N3CCN(C(=O)c4ccccc4)CC3)c12`, the EC50 is more than 500 nM.

Compound `O=C(C(=O)N1CCN(C(=O)c2ccccc2)CC1)c1c[nH]c2cc(C(F)(F)F)ccc12` came in with an EC50 of more than 5000 nM.

For the compound `Cc1ccc(C)c2c(C(=O)C(=O)N3CCN(C(=O)c4ccccc4)CC3)c[nH]c12`, the EC50 is more than 500 nM.

The compound `O=C(C(=O)N1CCN(C(=O)c2ccccc2)CC1)c1c[nH]c2cccc(O)c12` gave an EC50 of 20100 nM.

Take `COc1ccc(Br)c2[nH]cc(C(=O)C(=O)N3CCN(C(=O)c4ccccc4)CC3)c12`: the EC50 was 0.13 nM.

In turn, `O=C(C(=O)N1CCN(C(=O)c2ccccc2)CC1)c1c[nH]c2cc(Cl)c(F)cc12` registered a 50% effective concentration (EC50) of more than 500 nM.

With `Cc1ccc(F)c2c(C(=O)C(=O)N3CCN(C(=O)c4ccccc4)CC3)c[nH]c12`, the EC50 came to 0.56 nM.

Compound `COc1ccc(C#N)c2[nH]cc(C(=O)C(=O)N3CCN(C(=O)c4ccccc4)CC3)c12` registered a half-maximal effective concentration (EC50) of 0.06 nM.

Compound `O=C(C(=O)N1CCN(C(=O)c2ccccc2)CC1)c1c[nH]c2c(F)cccc12` had an EC50 of 7.3 nM.

With `Cn1cc(C(=O)C(=O)N2CCN(C(=O)c3ccccc3)CC2)c2ccccc21`, the EC50 stood at 265 nM.

With `COc1cc2[nH]cc(C(=O)C(=O)N3CCN(C(=O)c4ccccc4)CC3)c2cc1OC`, the response was half-maximal at 46500 nM (EC50).

In the case of `O=C(C(=O)N1CCN(C(=O)c2ccccc2)CC1)c1c[nH]c2c(Cl)cccc12`, the midpoint of the response, the EC50, lay at 4.4 nM.

The compound `CC(C)Oc1cccc2[nH]cc(C(=O)C(=O)N3CCN(C(=O)c4ccccc4)CC3)c12` gave a half-maximal effective concentration (EC50) of more than 500 nM.

Turning to `COc1ccc(F)c2c(C(=O)C(=O)N3CCN(C(=O)c4ccccc4)CC3)c[nH]c12`, the EC50 worked out at 0.06 nM.

`O=C(C(=O)N1CCN(C(=O)c2ccccc2)CC1)c1c[nH]c2c(Br)cc(F)cc12` returned a concentration for a half-maximal effect (EC50) of 73.1 nM.

With `COc1cccc2c(C(=O)C(=O)N3CCN(C(=O)c4ccccc4)CC3)c[nH]c12`, the EC50 worked out at 6.6 nM.

Turning to `O=C(C(=O)N1CCN(C(=O)c2ccccc2)CC1)c1c[nH]c2c(OCC(F)(F)F)ccc(F)c12`, the concentration for a half-maximal effect (EC50) stood at 0.71 nM.

Compound `O=C(C(=O)N1CCN(C(=O)c2ccccc2)CC1)c1c[nH]c2cccc(Cl)c12` displayed an EC50 of 4.3 nM.

For the compound `COc1cccc2[nH]cc(C(=O)C(=O)N3CCN(C(=O)c4ccccc4)CC3)c12`, the midpoint of the response, the EC50, lay at 0.52 nM.

In turn, `O=C(C(=O)N1CCN(C(=O)c2ccccc2)CC1)c1c[nH]c2cc(F)ccc12` gave a 50% effective concentration (EC50) of 21.1 nM.

`O=C(C(=O)N1CCN(C(=O)c2ccccc2)CC1)c1c[nH]c2c(F)ccc(Br)c12` yielded a concentration for a half-maximal effect (EC50) of 8.2 nM.
